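A five-concentration, 48-hour dose response in 96-well plates underlies each endpoint, interpolated linearly between surrounding concentrations. TGI is the concentration that stops growth completely.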
Assays:
Test in all cases: NCI-60 cell line screen, 48 h
HS 578T breast = test system: HS 578T breast
TK-10 renal = test system: TK-10 renal
UO-31 renal = test system: UO-31 renal
NCI/ADR-RES ovarian = test system: NCI/ADR-RES ovarian
RXF 393 renal = test system: RXF 393 renal
LOX IMVI melanoma = test system: LOX IMVI melanoma
T-47D breast = test system: T-47D breast
HL-60(TB) leukemia = test system: HL-60(TB) leukemia
SNB-19 CNS = test system: SNB-19 CNS
SN12C renal = test system: SN12C renal
NCI-H226 lung = test system: NCI-H226 lung
HCC-2998 colon = test system: HCC-2998 colon
U251 CNS = test system: U251 CNS
COLO 205 colon = test system: COLO 205 colon
OVCAR-4 ovarian = test system: OVCAR-4 ovarian
CAKI-1 renal = test system: CAKI-1 renal
SNB-75 CNS = test system: SNB-75 CNS
MCF7 breast = test system: MCF7 breast
MDA-MB-435 = test system: MDA-MB-435
BT-549 breast = test system: BT-549 breast
A498 renal = test system: A498 renal
MDA-MB-231 breast = test system: MDA-MB-231 breast
HCT-116 colon = test system: HCT-116 colon
SF-295 CNS = test system: SF-295 CNS
NCI-H460 lung = test system: NCI-H460 lung
UACC-62 melanoma = test system: UACC-62 melanoma
NCI-H522 lung = test system: NCI-H522 lung
SF-539 CNS = test system: SF-539 CNS
PC-3 prostate = test system: PC-3 prostate
RPMI-8226 leukemia = test system: RPMI-8226 leukemia
EKVX NSCLC = test system: EKVX NSCLC
SK-MEL-28 melanoma = test system: SK-MEL-28 melanoma
HCT-15 colon = test system: HCT-15 colon
CCRF-CEM leukemia = test system: CCRF-CEM leukemia
DU-145 prostate = test system: DU-145 prostate
SK-MEL-5 melanoma = test system: SK-MEL-5 melanoma
OVCAR-5 ovarian = test system: OVCAR-5 ovarian
SF-268 CNS = test system: SF-268 CNS
OVCAR-8 ovarian = test system: OVCAR-8 ovarian
ACHN renal = test system: ACHN renal
A549 NSCLC = test system: A549 NSCLC
MDA-N = test system: MDA-N
IGROV1 ovarian = test system: IGROV1 ovarian
MALME-3M melanoma = test system: MALME-3M melanoma
K-562 leukemia = test system: K-562 leukemia
HOP-62 NSCLC = test system: HOP-62 NSCLC
M14 melanoma = test system: M14 melanoma
SW-620 colon = test system: SW-620 colon
786-0 renal = test system: 786-0 renal
OVCAR-3 ovarian = test system: OVCAR-3 ovarian
MOLT-4 leukemia = test system: MOLT-4 leukemia
SK-OV-3 ovarian = test system: SK-OV-3 ovarian
UACC-257 melanoma = test system: UACC-257 melanoma
SK-MEL-2 melanoma = test system: SK-MEL-2 melanoma
KM12 colon = test system: KM12 colon
NCI-H23 lung = test system: NCI-H23 lung
SR leukemia = test system: SR leukemia
HT29 colon = test system: HT29 colon
HOP-92 NSCLC = test system: HOP-92 NSCLC

For `[N-]=[N+]=NC1OC(=O)C(Cl)=C1N=P(c1ccccc1)(c1ccccc1)c1ccccc1` (stereo not given), the TGI (HS 578T breast) was over 10 µM, the TGI (TK-10 renal) was over 10 µM and the TGI (UO-31 renal) was over 10 µM. The TGI (NCI/ADR-RES ovarian) was over 10 µM, the TGI (RXF 393 renal) was over 10 µM and the TGI (LOX IMVI melanoma) was over 10 µM. For the same compound, the TGI (T-47D breast) was over 10 µM, the TGI (HL-60(TB) leukemia) was over 10 µM and the TGI (SNB-19 CNS) was over 10 µM. For the same compound, the TGI (SN12C renal) was over 10 µM, the TGI (NCI-H226 lung) was over 10 µM and the TGI (HCC-2998 colon) was over 10 µM. The TGI (U251 CNS) was over 10 µM, the TGI (COLO 205 colon) was over 10 µM and the TGI (OVCAR-4 ovarian) was over 10 µM. For the same compound, the TGI (CAKI-1 renal) was over 10 µM, the TGI (SNB-75 CNS) was over 10 µM and the TGI (MCF7 breast) was over 10 µM. The TGI (MDA-MB-435) was over 10 µM, the TGI (BT-549 breast) was over 10 µM and the TGI (A498 renal) was over 10 µM. The TGI (MDA-MB-231 breast) was over 10 µM, the TGI (HCT-116 colon) was over 10 µM and the TGI (SF-295 CNS) was over 10 µM. It also gave a TGI (NCI-H460 lung) of over 10 µM, a TGI (UACC-62 melanoma) of over 10 µM and a TGI (NCI-H522 lung) of over 10 µM. The TGI (SF-539 CNS) was over 10 µM, the TGI (PC-3 prostate) was over 10 µM and the TGI (RPMI-8226 leukemia) was 8.33 µM. It also gave a TGI (EKVX NSCLC) of over 10 µM, a TGI (SK-MEL-28 melanoma) of over 10 µM and a TGI (HCT-15 colon) of over 10 µM. For the same compound, the TGI (CCRF-CEM leukemia) was over 10 µM, the TGI (DU-145 prostate) was over 10 µM and the TGI (SK-MEL-5 melanoma) was over 10 µM. For the same compound, the TGI (OVCAR-5 ovarian) was over 10 µM, the TGI (SF-268 CNS) was over 10 µM and the TGI (OVCAR-8 ovarian) was over 10 µM. For the same compound, the TGI (ACHN renal) was over 10 µM, the TGI (A549 NSCLC) was over 10 µM and the TGI (MDA-N) was over 10 µM. It also gave a TGI (IGROV1 ovarian) of over 10 µM, a TGI (MALME-3M melanoma) of over 10 µM and a TGI (K-562 leukemia) of over 10 µM. The TGI (HOP-62 NSCLC) was over 10 µM, the TGI (M14 melanoma) was over 10 µM and the TGI (SW-620 colon) was over 10 µM. The TGI (786-0 renal) was over 10 µM, the TGI (OVCAR-3 ovarian) was over 10 µM and the TGI (MOLT-4 leukemia) was 8.72 µM. It also gave a TGI (SK-OV-3 ovarian) of over 10 µM, a TGI (UACC-257 melanoma) of over 10 µM and a TGI (SK-MEL-2 melanoma) of over 10 µM. It also gave a TGI (KM12 colon) of over 10 µM.

With `CN(C(=O)Cc1ccccc1)n1cnn(CC(=O)OC(C)(C)C)c1=S` the TGI (HS 578T breast) was over 10 µM, the TGI (TK-10 renal) was over 10 µM and the TGI (UO-31 renal) was over 10 µM. It also gave a TGI (NCI/ADR-RES ovarian) of over 10 µM, a TGI (LOX IMVI melanoma) of over 10 µM and a TGI (T-47D breast) of over 10 µM. For the same compound, the TGI (NCI-H23 lung) was over 10 µM, the TGI (SNB-19 CNS) was over 10 µM and the TGI (SN12C renal) was over 10 µM. It also gave a TGI (HCC-2998 colon) of over 10 µM, a TGI (U251 CNS) of over 10 µM and a TGI (COLO 205 colon) of over 10 µM. The TGI (OVCAR-4 ovarian) was over 10 µM, the TGI (CAKI-1 renal) was over 10 µM and the TGI (SNB-75 CNS) was over 10 µM. It also gave a TGI (MCF7 breast) of over 10 µM, a TGI (MDA-MB-435) of over 10 µM and a TGI (BT-549 breast) of over 10 µM. For the same compound, the TGI (A498 renal) was over 10 µM, the TGI (SR leukemia) was over 10 µM and the TGI (MDA-MB-231 breast) was over 10 µM. For the same compound, the TGI (HCT-116 colon) was over 10 µM, the TGI (SF-295 CNS) was over 10 µM and the TGI (NCI-H460 lung) was over 10 µM. The TGI (UACC-62 melanoma) was over 10 µM, the TGI (NCI-H522 lung) was over 10 µM and the TGI (SF-539 CNS) was over 10 µM. The TGI (PC-3 prostate) was over 10 µM, the TGI (RPMI-8226 leukemia) was over 10 µM and the TGI (EKVX NSCLC) was over 10 µM. It also gave a TGI (SK-MEL-28 melanoma) of over 10 µM, a TGI (HCT-15 colon) of over 10 µM and a TGI (CCRF-CEM leukemia) of over 10 µM. For the same compound, the TGI (DU-145 prostate) was over 10 µM, the TGI (SK-MEL-5 melanoma) was over 10 µM and the TGI (OVCAR-5 ovarian) was over 10 µM. The TGI (SF-268 CNS) was over 10 µM, the TGI (OVCAR-8 ovarian) was over 10 µM and the TGI (ACHN renal) was over 10 µM. For the same compound, the TGI (A549 NSCLC) was over 10 µM, the TGI (MDA-N) was over 10 µM and the TGI (IGROV1 ovarian) was over 10 µM. For the same compound, the TGI (MALME-3M melanoma) was over 10 µM, the TGI (K-562 leukemia) was over 10 µM and the TGI (HOP-62 NSCLC) was over 10 µM. The TGI (M14 melanoma) was over 10 µM, the TGI (HT29 colon) was over 10 µM and the TGI (SW-620 colon) was over 10 µM. For the same compound, the TGI (786-0 renal) was over 10 µM, the TGI (OVCAR-3 ovarian) was over 10 µM and the TGI (HOP-92 NSCLC) was over 10 µM. For the same compound, the TGI (MOLT-4 leukemia) was over 10 µM, the TGI (SK-OV-3 ovarian) was over 10 µM and the TGI (UACC-257 melanoma) was over 10 µM. The TGI (KM12 colon) was over 10 µM.

From PubChem BioAssay (NCI)
